What is called Kd is the free concentration of one partner at which half of the binding sites on the other are occupied at equilibrium, for simple one-to-one binding. A word on the Ki: it is the equilibrium dissociation constant of an inhibitor or competing ligand from its target. A lower Ki goes with tighter binding. In general, logP refers to a log measure of how a compound divides between an organic and an aqueous phase. Read a low logP as a more hydrophilic compound. Usually IC50 stands for the concentration needed to halve the response being measured. As usually defined, the inhibition is the percentage by which the read-out fell short of the control. A lower inhibition goes with little suppression.

The source of these data is ChEMBL document CHEMBL5137055, “Near-Infrared Fluorescent Probes as Imaging and Theranostic Modalities for Amyloid-Beta and Tau Aggregates in Alzheimer's Disease” (J Med Chem, 2022).

The target of data set [1] is T1, Amyloid-beta precursor protein (Homo sapiens, UniProt P05067). The data set is described as follows: Binding affinity to human amyloid beta (1 to 42) aggregates measured by fluorescence assay.
T1 sequence (P05067 whole entry): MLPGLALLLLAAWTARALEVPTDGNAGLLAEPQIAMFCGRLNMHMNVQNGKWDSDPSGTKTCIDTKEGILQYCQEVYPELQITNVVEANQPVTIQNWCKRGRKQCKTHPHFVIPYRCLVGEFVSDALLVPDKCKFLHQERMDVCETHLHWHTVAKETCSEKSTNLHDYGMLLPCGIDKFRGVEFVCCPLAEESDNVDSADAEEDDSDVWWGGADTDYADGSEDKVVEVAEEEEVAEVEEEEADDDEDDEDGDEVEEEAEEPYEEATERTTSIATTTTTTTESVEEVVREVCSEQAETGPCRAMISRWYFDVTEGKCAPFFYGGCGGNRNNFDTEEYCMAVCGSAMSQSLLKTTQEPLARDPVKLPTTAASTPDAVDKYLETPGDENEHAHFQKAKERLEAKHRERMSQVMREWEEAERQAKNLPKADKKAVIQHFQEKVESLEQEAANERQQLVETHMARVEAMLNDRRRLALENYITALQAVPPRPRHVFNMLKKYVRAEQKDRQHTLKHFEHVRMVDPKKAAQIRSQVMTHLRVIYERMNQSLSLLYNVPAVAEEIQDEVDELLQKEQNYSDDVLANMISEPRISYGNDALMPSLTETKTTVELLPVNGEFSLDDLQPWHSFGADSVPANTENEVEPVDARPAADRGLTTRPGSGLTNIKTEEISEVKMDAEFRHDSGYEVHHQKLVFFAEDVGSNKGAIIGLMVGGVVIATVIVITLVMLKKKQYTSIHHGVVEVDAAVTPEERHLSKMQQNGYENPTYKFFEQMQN
Data set [2] concerns the target T1, Amyloid-beta precursor protein. Description: Binding affinity to human amyloid beta (1 to 42) oligomer measured by fluorescence assay.
For data set [3] the target is unchanged. Description: Binding affinity to human amyloid beta (1 to 42) monomer measured by fluorescence assay.
Data set [4] is described as follows: Binding affinity to amyloid beta (unknown origin) aggregates. Further details: species or system Homo sapiens.
The nature of data set [5]: Binding affinity to amyloid beta (unknown origin) oligomer. Set-up: species or system Homo sapiens.
Data set [6] in a line: Binding affinity to amyloid beta (unknown origin) monomer. Set-up: species or system Homo sapiens.
The target of data set [7] is T1, Amyloid-beta precursor protein. Description: Displacement of [125I]IMPY from amyloid beta (1 to 42) (unknown origin) measured by competitive radioligand binding assay. (In a radioligand displacement assay an active substance lowers the binding of a labelled ligand.)
For data set [8] the target is unchanged. Description: Displacement of [125I]IMPY from amyloid beta (1 to 40) (unknown origin) measured by competitive radioligand binding assay.
A short description of data set [9]: Drug uptake in brain of Tg mouse at 2 mins post injection. It is filed as ADME, tissue-based. Conditions: read-out: Drug uptake.
The nature of data set [10]: Binding affinity to insoluble amyloid beta (unknown origin). Set-up: species or system Homo sapiens.
Data set [11] can be described thus: Binding affinity to soluble amyloid beta (unknown origin). Further details: species or system Homo sapiens.
The nature of data set [12]: Lipophilicity, logP of compound. It is filed as physicochemical. Conditions: octanol/water.
A short description of data set [13]: Inhibition of amyloid beta (unknown origin) self-induced aggregation. Further details: species or system Homo sapiens.
Data set [14] in a line: Binding affinity to tau protein (unknown origin). Set-up: species or system Homo sapiens.
The target of data set [15] is T1, Amyloid-beta precursor protein. Description: Binding affinity to amyloid beta (1 to 40) (unknown origin) fibrils.
The target is the same in data set [16]. The data set is described as follows: Binding affinity to amyloid beta (1 to 40) (unknown origin) aggregates.
Data set [17] is filed under the species Homo sapiens. Description: Inhibition of amyloid beta (unknown origin) assessed as decrease in amyloid beta monomers.
Data set [18] is filed under the species Homo sapiens. The data set is described as follows: Inhibition of amyloid beta (unknown origin) measured by ThT-based fluorimetric assay. Conditions: concentration not given here.
Data set [19] has as its target T1, Amyloid-beta precursor protein. The data set is described as follows: Binding affinity to human amyloid beta (1 to 40) aggregates measured by fluorescence assay.
Data set [20] shares this target. The data set is described as follows: Binding affinity to human amyloid beta (1 to 40) monomer measured by fluorescence assay.
The target is the same in data set [21]. Description: Binding affinity to human amyloid beta (1 to 42) oligomer measured by fluorescence polarization assay. (In general: In fluorescence polarisation assays a small probe gives low polarisation when free and higher when bound to something large.)
A further data set deals with Albumin (Bos taurus, UniProt P02769). The data set is described as follows: Binding affinity to bovine serum albumin.
Chain of Albumin (P02769 whole entry): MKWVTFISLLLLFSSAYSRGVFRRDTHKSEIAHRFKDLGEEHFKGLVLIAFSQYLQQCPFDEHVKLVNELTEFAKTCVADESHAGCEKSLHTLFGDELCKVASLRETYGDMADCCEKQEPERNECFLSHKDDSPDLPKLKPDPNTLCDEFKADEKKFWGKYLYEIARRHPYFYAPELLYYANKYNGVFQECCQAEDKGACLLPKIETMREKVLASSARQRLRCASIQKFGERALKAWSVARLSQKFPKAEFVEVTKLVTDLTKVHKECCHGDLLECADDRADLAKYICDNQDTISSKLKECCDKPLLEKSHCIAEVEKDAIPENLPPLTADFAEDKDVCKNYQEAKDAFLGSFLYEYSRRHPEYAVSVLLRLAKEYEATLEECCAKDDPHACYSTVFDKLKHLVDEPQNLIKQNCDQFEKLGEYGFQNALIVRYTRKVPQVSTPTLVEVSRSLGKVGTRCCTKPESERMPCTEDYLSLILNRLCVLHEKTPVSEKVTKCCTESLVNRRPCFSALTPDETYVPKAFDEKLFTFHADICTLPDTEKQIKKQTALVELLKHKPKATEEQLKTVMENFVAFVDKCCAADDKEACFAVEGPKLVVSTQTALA
Data set [22] has as its target T1, Amyloid-beta precursor protein. The data set is described as follows: Binding affinity to human amyloid beta (1 to 42) aggregates measured by fluorescence polarization assay.
Data set [23] shares this target. Description: Binding affinity to human amyloid beta (1 to 42) monomer measured by fluorescence polarization assay.
Data set [24] in a line: Binding affinity to mouse brain amyloid beta plaques.

On to `CCN(CC)c1ccc(/C=C/C2=CC(/C=C/c3ccc(N(CC)CC)nc3)=[O+][B-](F)(F)O2)cn1`, for which the Kd in data set [1] is 27 nM; in data set [2] it was 16 nM; in data set [3], 24 nM.

`CC1=CC(C)=[N+]2C1=C(CCCN1CCNc3ccccc31)c1c(C)cc(/C=C/c3ccc(N(C)C)s3)n1[B-]2(F)F`: the figures for the Kd in data set [4], in data set [5] and in [6] were 18 nM, 27 nM and 6 nM, respectively.

`CN1C(=O)C(=C/C=C/C=C/c2ccc(N(C)C)cc2)C(=O)N(C)C1=O` showed a Ki in [7] of 13.7 nM. The compound further had a Kd in data set [8] of 23.9 nM. Further, in [9], the tissue uptake at 2 min came to 0.83 %ID/g.

For `CCN(CC)c1ccc(/C=C/C2=[O+][B-](F)(F)OC(/C=C/c3ccc(N(CC)CC)nc3)=C2CCCOc2c(C)cccc2C)cn1`, the values for the Kd in [10] and in data set [11] were 506 nM and 7.5 nM, respectively.

`CCOC(=O)CN1C(=O)S/C(=C\C=C\c2ccc3c(c2)Sc2ccccc2N3C)C1=O`: in data set [4], binding was put at a Kd of 10.3 nM. The compound also yielded a logP in [12] of 3.6. This compound also came in with a half-maximal inhibitory concentration (IC50) in [13] of 1800 nM.

`CCCC[N+]1=C(/C=C/c2ccc(N(CC)CC)cc2)C(C)(C)c2ccccc21` returned an IC50 in data set [14] of 1.41 nM. The same compound yielded a Kd in data set [15] of 930 nM. In data set [16], this compound displayed a Ki of 1.37 nM.

With `CCOC(=O)CN1C(=O)/C(=C/c2ccc3c(c2)Sc2ccccc2N3C)SC1=S`, the affinity in data set [4], expressed as Kd, was 7.5 nM. This compound also showed a logP in [12] of 3.68. Also, the IC50 in data set [13] stood at 670 nM.

Turning to `Nc1c(/N=N/c2ccc(-c3ccc(/N=N/c4cc(S(=O)(=O)O)c5ccccc5c4N)cc3)cc2)cc(S(=O)(=O)O)c2ccccc12`, the ID50 in the data set listed under Homo sapiens [17] worked out at 3400 nM.

`Cc1ccc2nc(/C=C/c3ccc(N)cc3)ccc2c1`: the inhibition in the data set filed under Homo sapiens [18] came out at 73%.

In the case of `Cc1c(/C=C/C2=CC(/C=C/c3cnn(-c4ccccc4)c3C)=[O+][B-](F)(F)O2)cnn1-c1ccccc1`, the Kd in [2] was found to be 68.8 nM; in data set [19], 52.4 nM; in data set [20] it was 85.7 nM.

Turning to `COc1cc(/C=C/C(=O)/C(Cc2cn(CCCCCCNC(=O)CCNC(=O)CCNC(=O)CO[C@H]3CC[C@@]4(C)C(=CC[C@H]5[C@@H]6CC[C@H]([C@@H](C)CCCC(C)C)[C@@]6(C)CC[C@@H]54)C3)nn2)=C(O)/C=C/c2ccc(O)c(OC)c2)ccc1O`, the Kd in data set [21] was determined as 2170 nM; on Albumin it was 71000 nM; in data set [22], 830 nM; in data set [23], 2030 nM.

Take `CN(C)c1ccc(/C=C/C2=[O+][B-](F)(F)OC(/C=C/c3ccc(OCCOCCF)cc3)=C2)cc1`: in [24], binding was characterised by a dissociation constant (Kd) of 19.7 nM.

On to `O=C1NC(=S)NC(=O)C1=C/C=C/C=C/C1C(=O)NC(=S)NC1O` (stereo unspecified), for which the tissue uptake at 2 min in [9] stood at 0.04 %ID/g.
